What was measured:
[1] = tested on: Mannitol dehydrogenase from Thermotoga maritima (TmMtDH); test: Cyclic voltammetry of the Gly-TBO-PEI-NADH-TmMtDH-modified electrode with sugar substrates (calibration plot, saturation current, turnover); type: biochemical; conditions: substrate tested on Gly-TBO-PEI-NADH-TmMtDH-modified electrode; 100 mM PBS pH 6.0, 60° C.
Experimental: Cyclic voltammetric experiments were conducted by sweeping the potential of the working electrode between 200 mV and −600 mV at a scan rate of 100 mV s^−1, causing fructose in the vicinity of the electrode to be reduced to mannitol in the […] direction and mannitol to be oxidized to fructose in the reverse direction. All electrochemical measurements were made in 100 mM PBS (pH 6.0) at 60° C. using an electrode with a controlled surface area of 0.07 cm^2. The slope of the calibration plot, which depicts peak current vs. concentration, is a measure of the biosensor's sensitivity. The maximum turnover rate (TRmax), which corresponds to the number of fructose molecules reduced per TmMtDH molecule per second, was calculated using Eq. 6 (Eisenwiener and Schulz, 1969):
[formula] where the background current (I0) and saturation current (Icat^sat) are given by the y-intercept of the calibration curve and the plateau current at a given concentration, respectively. Electrochemical Impedance Spectroscopy
The slope of the calibration curve (0.70±0.01 μA) mM^−1 cm^−2) is a measure of the biosensor's sensitivity. At higher concentrations, the anodic current reached a saturation value (Icat^sat=740.9±11.6 μA cm^−2). This value was used to calculate a TRmax, which represents the number of molecules of fructose reduction per TmMtDH molecule per second, of 57.5±2.8 s^−1, using Eq. 6 (Eisenwiener and Schulz, 1969).
The selectivity of the Gly-TBO-PEI-NADH-TmMtDH-modified electrode was examined by testing alternative substrates.

[2] = carboxylic acid group; cited from earlier work

Compound	Icat^sat [1] [μA cm^−2]	Sensitivity [1] [μA mM^−1 cm^−2]	pKa [2]
OC1COC(O)C(O)C1O (centres unmarked) [Arbinose, arbinose]	542.8 ± 9.1	0.3 ± 0.0	–
NCC(=O)O [Gly, Glycine]	–	–	~4.3
O=C(O)CCS [MPA]	–	–	~4.3

Now from value to compound, other results behind:

Icat^sat [1] [μA cm^−2]	Sensitivity [1] [μA mM^−1 cm^−2]	Compound	pKa [2]
748.2 ± 11.7	10.1 ± 0.2	O=C(CO)[C@@H](O)[C@H](O)[C@H](O)CO [Fructose, D-fructose]	–
562.4 ± 1.4	0.4 ± 0.0	O=C(CO)[C@H](O)[C@@H](O)[C@H](O)CO [Sorbose, sorbose]	–
